# Patent publication US12403135B2, “4H-pyrrolo[3,2-c]pyridin-4-one derivatives” (Bayer Aktiengesellschaft, priority 2019, dated 2025)
# Like-named read-outs stand apart in the source and are kept apart here.
# Columns and labels:
# Format in all cases: cell-based
# [1] = molecular target: Ba/F3-EGFR-WT cells (BA/F3 wild type EGFR) (Homo sapiens, UniProt P00533); experiment: BA/F3 (wild type) proliferation assay, Cell Titer-Glo; details: Table 7; plated with 10 ng/mL EGF, without IL-3, 48 h; read-out: BA/F3 (wild type) IC50
# Protocol: (§1) Plates were incubated at 37° C. for 48 h. Retrovirus was harvested by filtering the media supernatant through a 0.45 μm filter.
# (§2) Ba/F3 cells purchased from DSMZ were grown in RPMI+10% FBS+10 ng/mL IL-3 and infected with filtered retroviral supernatant at a 1:2 dilution. Polybrene was added to a concentration of 8 μg/mL, plates were spun for 90 min, and incubated overnight at 37° C. 2 μg/mL puromycin was added to the infected cells 24 h after infection and cells were continually grown in the presence of puromycin and 10 ng/mL IL-3. Following stably expressing Ba/F3 cell lines were generated: Ba/F3-EGFR-WT.
# For cell survival assays, Ba/F3 cells were grown to a density of 1-2 million cells per mL, spun down and resuspended in media without IL-3, and replated at a concentration 200,000-500,000 cells per mL. The cells ectopically expressing WT EGFR were plated with 10 ng/mL Millipore Culture grade EGF.
# (§3) 24 hours later, cells were plated in 30 μL in a 384 well plate at a concentration of 3200 cells per well for cells assayed in the absence of IL-3. 100 nL of compound was added to each well using a 100 nL pin head, and plates were incubated at 37° C. for 48 h.
# (§4) Cell viability was measured by adding 30 μL of Cell Titer-Glo Luminescent Cell Viability Reagent. Plates were sealed with Perkin Elmer Top-Seal, inverted several times to mix, and immediately centrifuged at 1000 rpm for 2 min. Plates were incubated in low light conditions for 8-10 min and luminescence was measured.
# [2] = tested on: Ba/F3-EGFR-delLREA cells (EGFR del19/delLREA (746-750), E746_A750del); experiment: BA/F3 EGFR del19/delLREA (746-750) (E746_A750del) cell survival assay, Cell Titer-Glo
# Protocol: as §1
# as §2, with “Ba/F3-EGFR-L858R, Ba/F3-EGFR-delLREA, (Ba/F3-vector-control).” for “Ba/F3-EGFR-WT.”
# (§5) For cell survival assays, Ba/F3 cells were grown to a density of 1-2 million cells per mL, spun down and resuspended in media without IL-3, and replated at a concentration 200,000-500,000 cells per mL. The cells ectopically expressing pBABEpuro empty vector were plated with 10 ng/mL IL-3.
# as §3, with “2 days” for “24 hours”, “50” for “30”, “4000” for “3200”, “absence of IL-3 and 2000 cells per well for cells (pBABE puro empty vector) assayed in the presence” for “absence”
# as §4, with “20” for “30”, “Reagent diluted 1:3 in PBS.” for “Reagent.”
# Ba/F3-EGFR-L858R cells = Ba/F3-EGFR-L858R cells (Homo sapiens, UniProt P00533, L858R, cells depend on it); experiment: BA/F3 EGFR L858R cell survival assay, Cell Titer-Glo; details: read-out: BA/F3 (EGFR L858R) IC50
# Protocol: as §1
# as §2, with “Ba/F3-EGFR-L858R, Ba/F3-EGFR-delLREA, (Ba/F3-vector-control).” for “Ba/F3-EGFR-WT.”
# as §5
# as §3, with “2 days” for “24 hours”, “50” for “30”, “4000” for “3200”, “absence of IL-3 and 2000 cells per well for cells (pBABE puro empty vector) assayed in the presence” for “absence”
# as §4, with “20” for “30”, “Reagent diluted 1:3 in PBS.” for “Reagent.”
# [3] = molecular target: Ba/F3-EGFR-D770_N771 insNPG cells (Homo sapiens, UniProt P00533, INS772GNP, cells depend on it); experiment: BA/F3 (insNPG) proliferation, EGFR Exon20 insertion mutation; details: Table 9; EGFR Exon20 insertion mutations; read-out: BA/F3 (insNPG) IC50
# Protocol: as §1
# as §2, with “Ba/F3-EGFR-V769_D770 insASV, Ba/F3-EGFR-D770_N771 insNPG, Ba/F3-EGFR-N771_P772 insH, Ba/F3-EGFR-H773_V774 insNPH, Ba/F3-EGFR-D770_N771 insSVD C797S, Ba/F3-EGFR-E746_A750del C797S, Ba/F3-EGFR-L858R C797S, Ba/F3-EGFR L861Q and Ba/F3-ERBB2-A775_G776insYVMA (Ba/F3-vector-control).” for “Ba/F3-EGFR-WT.”
# [4] = molecular target: Ba/F3-EGFR-V769_D770 insASV cells (Homo sapiens, UniProt P00533, DUP767-769, cells depend on it); experiment: BA/F3 (ASV) proliferation, EGFR Exon20 insertion mutation; details: Table 9; EGFR Exon20 insertion mutations; read-out: BA/F3 (ASV) IC50
# Protocol: as §1
# as §2, with “Ba/F3-EGFR-V769_D770 insASV, Ba/F3-EGFR-D770_N771 insNPG, Ba/F3-EGFR-N771_P772 insH, Ba/F3-EGFR-H773_V774 insNPH, Ba/F3-EGFR-D770_N771 insSVD C797S, Ba/F3-EGFR-E746_A750del C797S, Ba/F3-EGFR-L858R C797S, Ba/F3-EGFR L861Q and Ba/F3-ERBB2-A775_G776insYVMA (Ba/F3-vector-control).” for “Ba/F3-EGFR-WT.”
# Ba/F3-EGFR L861Q cells = experiment: BA/F3 (EGFR L861Q) proliferation, uncommon EGFR mutation; details: Table 10, classical activating and uncommon EGFR mutations
# Protocol: as §1
# as §2, with “Ba/F3-EGFR-V769_D770 insASV, Ba/F3-EGFR-D770_N771 insNPG, Ba/F3-EGFR-N771_P772 insH, Ba/F3-EGFR-H773_V774 insNPH, Ba/F3-EGFR-D770_N771 insSVD C797S, Ba/F3-EGFR-E746_A750del C797S, Ba/F3-EGFR-L858R C797S, Ba/F3-EGFR L861Q and Ba/F3-ERBB2-A775_G776insYVMA (Ba/F3-vector-control).” for “Ba/F3-EGFR-WT.”
# [5] = tested on: Ba/F3-EGFR-D770_N771 insSVD C797S cells; experiment: BA/F3 (EGFR D770_N771 insSVD C797S) proliferation, acquired resistance; details: Ba/F3 EGFR-D770-N771ins_SVD; Table 11; acquired resistance space
# Protocol: as §1
# as §2, with “Ba/F3-EGFR-V769_D770 insASV, Ba/F3-EGFR-D770_N771 insNPG, Ba/F3-EGFR-N771_P772 insH, Ba/F3-EGFR-H773_V774 insNPH, Ba/F3-EGFR-D770_N771 insSVD C797S, Ba/F3-EGFR-E746_A750del C797S, Ba/F3-EGFR-L858R C797S, Ba/F3-EGFR L861Q and Ba/F3-ERBB2-A775_G776insYVMA (Ba/F3-vector-control).” for “Ba/F3-EGFR-WT.”
# [6] = tested on: Ba/F3-EGFR-E746_A750del C797S cells; experiment: BA/F3 (EGFR E746_A750del C797S) proliferation, acquired resistance; details: Table 11, acquired resistance space
# Protocol: as §1
# as §2, with “Ba/F3-EGFR-V769_D770 insASV, Ba/F3-EGFR-D770_N771 insNPG, Ba/F3-EGFR-N771_P772 insH, Ba/F3-EGFR-H773_V774 insNPH, Ba/F3-EGFR-D770_N771 insSVD C797S, Ba/F3-EGFR-E746_A750del C797S, Ba/F3-EGFR-L858R C797S, Ba/F3-EGFR L861Q and Ba/F3-ERBB2-A775_G776insYVMA (Ba/F3-vector-control).” for “Ba/F3-EGFR-WT.”
# [7] = tested on: Ba/F3-EGFR-L858R C797S cells; experiment: BA/F3 (EGFR L858R C797S) proliferation, acquired resistance; details: Table 11, acquired resistance space
# Protocol: as §1
# as §2, with “Ba/F3-EGFR-V769_D770 insASV, Ba/F3-EGFR-D770_N771 insNPG, Ba/F3-EGFR-N771_P772 insH, Ba/F3-EGFR-H773_V774 insNPH, Ba/F3-EGFR-D770_N771 insSVD C797S, Ba/F3-EGFR-E746_A750del C797S, Ba/F3-EGFR-L858R C797S, Ba/F3-EGFR L861Q and Ba/F3-ERBB2-A775_G776insYVMA (Ba/F3-vector-control).” for “Ba/F3-EGFR-WT.”
# [8] = molecular target: Ba/F3-ERBB2-A775_G776insYVMA cells (Homo sapiens, UniProt P04626, DUP772-775, cells depend on it); experiment: BA/F3 (ERBB2 A775_G776 insYVMA) proliferation; details: Table 12; read-out: BA/F3 (ERBB2 A775_G776 insYVMA) IC50
# Protocol: as §1
# as §2, with “Ba/F3-EGFR-V769_D770 insASV, Ba/F3-EGFR-D770_N771 insNPG, Ba/F3-EGFR-N771_P772 insH, Ba/F3-EGFR-H773_V774 insNPH, Ba/F3-EGFR-D770_N771 insSVD C797S, Ba/F3-EGFR-E746_A750del C797S, Ba/F3-EGFR-L858R C797S, Ba/F3-EGFR L861Q and Ba/F3-ERBB2-A775_G776insYVMA (Ba/F3-vector-control).” for “Ba/F3-EGFR-WT.”
# Ba/F3-EGFR-L858R cells, sequence (P00533 whole entry L858R): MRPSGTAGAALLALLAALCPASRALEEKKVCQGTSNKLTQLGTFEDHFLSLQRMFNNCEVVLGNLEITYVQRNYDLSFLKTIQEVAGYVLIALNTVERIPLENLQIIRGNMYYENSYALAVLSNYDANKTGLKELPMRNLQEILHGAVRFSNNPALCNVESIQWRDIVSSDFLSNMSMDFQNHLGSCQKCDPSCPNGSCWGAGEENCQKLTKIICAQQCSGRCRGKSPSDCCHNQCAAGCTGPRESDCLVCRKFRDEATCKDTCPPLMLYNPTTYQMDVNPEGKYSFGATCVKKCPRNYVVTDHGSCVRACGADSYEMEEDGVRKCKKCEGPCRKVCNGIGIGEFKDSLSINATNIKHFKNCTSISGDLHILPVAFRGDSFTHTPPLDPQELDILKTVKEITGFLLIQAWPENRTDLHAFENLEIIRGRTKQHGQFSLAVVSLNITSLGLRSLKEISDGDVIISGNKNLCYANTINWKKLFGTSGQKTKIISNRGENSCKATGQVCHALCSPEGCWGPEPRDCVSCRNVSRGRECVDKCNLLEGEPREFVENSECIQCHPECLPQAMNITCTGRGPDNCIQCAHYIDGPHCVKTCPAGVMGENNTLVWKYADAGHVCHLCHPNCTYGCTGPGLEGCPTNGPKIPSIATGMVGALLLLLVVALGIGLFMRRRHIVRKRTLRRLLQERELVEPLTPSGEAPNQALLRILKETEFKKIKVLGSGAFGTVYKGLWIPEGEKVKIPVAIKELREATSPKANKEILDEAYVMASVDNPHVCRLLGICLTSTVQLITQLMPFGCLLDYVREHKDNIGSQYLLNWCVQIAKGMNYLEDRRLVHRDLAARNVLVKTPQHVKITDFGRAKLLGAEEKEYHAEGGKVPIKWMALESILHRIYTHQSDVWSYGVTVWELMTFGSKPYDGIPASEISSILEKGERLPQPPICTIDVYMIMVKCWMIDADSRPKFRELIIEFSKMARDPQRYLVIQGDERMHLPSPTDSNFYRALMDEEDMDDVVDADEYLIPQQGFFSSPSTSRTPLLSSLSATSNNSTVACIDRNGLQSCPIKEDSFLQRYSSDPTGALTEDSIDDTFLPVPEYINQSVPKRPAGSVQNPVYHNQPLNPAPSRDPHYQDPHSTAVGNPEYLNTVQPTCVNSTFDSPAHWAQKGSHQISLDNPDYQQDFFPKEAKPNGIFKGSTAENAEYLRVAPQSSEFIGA
# Ba/F3-EGFR-D770_N771 insNPG cells, sequence (P00533 with tags, fused parts or gaps INS772GNP): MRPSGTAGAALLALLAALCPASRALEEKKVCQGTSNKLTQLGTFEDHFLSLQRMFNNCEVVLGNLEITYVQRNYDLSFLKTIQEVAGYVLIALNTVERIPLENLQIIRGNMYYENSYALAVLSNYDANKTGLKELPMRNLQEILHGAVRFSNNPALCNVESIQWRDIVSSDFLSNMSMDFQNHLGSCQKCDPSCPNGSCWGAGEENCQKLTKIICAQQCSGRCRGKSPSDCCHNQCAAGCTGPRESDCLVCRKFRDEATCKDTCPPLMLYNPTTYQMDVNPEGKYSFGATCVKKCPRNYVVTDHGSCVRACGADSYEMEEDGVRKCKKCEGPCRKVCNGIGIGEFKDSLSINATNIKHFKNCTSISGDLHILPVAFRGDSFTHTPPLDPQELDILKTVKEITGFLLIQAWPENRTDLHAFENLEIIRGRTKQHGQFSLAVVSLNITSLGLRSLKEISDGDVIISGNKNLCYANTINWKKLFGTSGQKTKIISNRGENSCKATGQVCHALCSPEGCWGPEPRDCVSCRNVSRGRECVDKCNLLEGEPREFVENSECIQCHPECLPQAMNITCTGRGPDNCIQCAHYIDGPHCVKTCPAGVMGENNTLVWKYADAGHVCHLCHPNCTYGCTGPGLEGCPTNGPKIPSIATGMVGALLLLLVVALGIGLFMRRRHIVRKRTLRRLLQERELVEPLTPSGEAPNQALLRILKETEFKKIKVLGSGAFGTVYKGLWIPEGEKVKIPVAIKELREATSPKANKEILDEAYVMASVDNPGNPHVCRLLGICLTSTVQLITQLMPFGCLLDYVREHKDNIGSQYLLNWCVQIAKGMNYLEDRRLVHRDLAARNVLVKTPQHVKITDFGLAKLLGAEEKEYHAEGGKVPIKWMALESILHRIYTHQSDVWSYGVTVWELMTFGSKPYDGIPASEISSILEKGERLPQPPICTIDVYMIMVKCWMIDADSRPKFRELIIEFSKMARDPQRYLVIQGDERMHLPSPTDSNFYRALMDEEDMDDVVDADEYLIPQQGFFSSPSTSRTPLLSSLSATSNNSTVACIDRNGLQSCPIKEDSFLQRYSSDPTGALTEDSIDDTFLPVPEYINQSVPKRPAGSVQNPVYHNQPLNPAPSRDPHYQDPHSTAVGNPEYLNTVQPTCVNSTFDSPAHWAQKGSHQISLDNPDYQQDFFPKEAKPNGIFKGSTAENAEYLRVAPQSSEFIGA
# Ba/F3-EGFR-WT cells (BA/F3 wild type EGFR), sequence (P00533 whole entry, change not shown): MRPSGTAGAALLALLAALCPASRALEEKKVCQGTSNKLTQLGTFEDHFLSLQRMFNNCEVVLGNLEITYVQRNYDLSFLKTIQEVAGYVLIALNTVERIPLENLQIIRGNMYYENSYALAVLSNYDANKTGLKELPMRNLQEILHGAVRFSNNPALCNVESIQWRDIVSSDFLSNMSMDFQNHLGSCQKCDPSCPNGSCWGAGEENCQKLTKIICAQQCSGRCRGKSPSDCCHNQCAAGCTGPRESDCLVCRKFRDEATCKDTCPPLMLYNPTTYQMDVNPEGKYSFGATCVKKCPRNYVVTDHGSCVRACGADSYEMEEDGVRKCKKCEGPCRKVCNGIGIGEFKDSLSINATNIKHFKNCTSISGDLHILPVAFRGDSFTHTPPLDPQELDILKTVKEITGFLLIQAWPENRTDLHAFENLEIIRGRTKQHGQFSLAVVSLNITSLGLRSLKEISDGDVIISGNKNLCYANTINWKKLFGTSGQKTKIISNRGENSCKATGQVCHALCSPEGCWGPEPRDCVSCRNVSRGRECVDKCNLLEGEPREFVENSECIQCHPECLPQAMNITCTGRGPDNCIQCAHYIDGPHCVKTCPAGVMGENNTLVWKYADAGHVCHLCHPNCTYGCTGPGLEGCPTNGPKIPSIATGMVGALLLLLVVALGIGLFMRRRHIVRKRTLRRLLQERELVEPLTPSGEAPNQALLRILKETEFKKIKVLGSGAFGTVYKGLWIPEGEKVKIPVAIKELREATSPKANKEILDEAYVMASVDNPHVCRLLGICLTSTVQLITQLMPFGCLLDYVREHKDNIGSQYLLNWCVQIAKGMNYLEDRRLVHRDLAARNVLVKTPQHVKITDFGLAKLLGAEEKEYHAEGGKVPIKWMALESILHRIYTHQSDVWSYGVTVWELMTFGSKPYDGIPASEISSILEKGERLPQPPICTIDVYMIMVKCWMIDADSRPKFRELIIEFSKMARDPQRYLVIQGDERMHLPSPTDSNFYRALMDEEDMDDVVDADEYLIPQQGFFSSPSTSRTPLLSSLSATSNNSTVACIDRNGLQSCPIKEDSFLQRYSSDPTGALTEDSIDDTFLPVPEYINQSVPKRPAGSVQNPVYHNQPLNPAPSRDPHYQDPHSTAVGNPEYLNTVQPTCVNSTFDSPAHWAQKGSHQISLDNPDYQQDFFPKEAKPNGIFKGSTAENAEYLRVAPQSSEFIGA
# Ba/F3-EGFR-V769_D770 insASV cells, sequence (P00533 with tags, fused parts or gaps DUP767-769): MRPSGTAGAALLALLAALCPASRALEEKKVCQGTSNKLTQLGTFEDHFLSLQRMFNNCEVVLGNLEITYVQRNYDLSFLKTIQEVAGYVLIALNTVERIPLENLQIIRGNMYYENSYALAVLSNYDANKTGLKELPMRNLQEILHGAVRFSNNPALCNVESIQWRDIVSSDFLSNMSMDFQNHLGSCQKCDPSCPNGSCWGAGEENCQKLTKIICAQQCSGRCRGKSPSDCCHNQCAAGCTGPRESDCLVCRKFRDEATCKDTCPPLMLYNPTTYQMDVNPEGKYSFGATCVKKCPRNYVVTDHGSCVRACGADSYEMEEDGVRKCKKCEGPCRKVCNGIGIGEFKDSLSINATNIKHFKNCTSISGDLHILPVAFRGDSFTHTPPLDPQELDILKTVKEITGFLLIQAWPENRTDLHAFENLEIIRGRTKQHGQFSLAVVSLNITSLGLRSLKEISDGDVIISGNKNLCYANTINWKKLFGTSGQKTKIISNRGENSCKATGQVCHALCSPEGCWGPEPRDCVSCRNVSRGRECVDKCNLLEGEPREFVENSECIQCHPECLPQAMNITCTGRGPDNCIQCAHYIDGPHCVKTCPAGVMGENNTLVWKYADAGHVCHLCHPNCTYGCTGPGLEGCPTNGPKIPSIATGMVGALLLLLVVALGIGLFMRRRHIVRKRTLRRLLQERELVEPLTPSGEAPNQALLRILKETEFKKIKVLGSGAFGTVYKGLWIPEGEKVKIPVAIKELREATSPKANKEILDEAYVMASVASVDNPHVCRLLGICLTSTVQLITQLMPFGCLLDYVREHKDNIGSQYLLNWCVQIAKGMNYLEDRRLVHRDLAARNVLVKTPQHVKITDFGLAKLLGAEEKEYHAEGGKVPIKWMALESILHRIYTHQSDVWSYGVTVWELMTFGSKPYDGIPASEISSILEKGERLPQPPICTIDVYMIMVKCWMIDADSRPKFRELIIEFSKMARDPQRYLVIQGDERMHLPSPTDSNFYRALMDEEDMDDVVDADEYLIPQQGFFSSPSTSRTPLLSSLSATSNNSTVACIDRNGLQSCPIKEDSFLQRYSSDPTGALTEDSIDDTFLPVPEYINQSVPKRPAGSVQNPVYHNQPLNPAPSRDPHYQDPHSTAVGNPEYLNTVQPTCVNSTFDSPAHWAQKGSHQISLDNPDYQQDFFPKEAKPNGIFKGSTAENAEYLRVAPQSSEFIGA
structure (smiles),measurement,setting,value
"COc1c(F)cccc1Nc1c(-c2ccncc2OCC(C)(C)OC)[nH]c2c1C(=O)NCC2 [Example 17, 3-[(3-fluoro-2-methoxyphenyl)amino]-2-[3-(2-methoxy-2-methylpropoxy)pyridin-4-yl]-1,5,6,7-tetrahydro-4H-pyrrolo[3,2-c]pyridin-4-one]",GI50,[1],397 nM
same,IC50,"[2]; Table 8, without IL-3, 48 h, read-out: BA/F3 (EGFR del19/delREA (746-750) IC50)",0.13 nM
same,IC50,"[2]; Table 10, classical activating and uncommon EGFR mutations, read-out: BA/F3 (EGFR E746_A750del) IC50",0.575 nM
same,GI50,"Ba/F3-EGFR-L858R cells; Table 8, without IL-3, 48 h",1.2 nM
same,GI50,"Ba/F3-EGFR-L858R cells; Table 10, classical activating and uncommon EGFR mutations",1.49 nM
same,GI50,[3],12.8 nM
same,GI50,[4],15.3 nM
same,IC50,Ba/F3-EGFR L861Q cells,25.7 nM
same,IC50,[5],16.6 nM
same,IC50,[6],0.292 nM
same,IC50,[7],1.16 nM
same,GI50,[8],17.1 nM
